According to patent US10910085B2, “Methods of making polypeptides with non-standard amino acids using genomically recoded organisms” (President and Fellows of Harvard College, priority 2014, dated 2021):

Assays:
[1] = tested on: genomically recoded organism (GRO); assay type: cell-based, E. coli; conditions: pAzF held constant at 1 mM; for reductions in OD consistent with reaction with pAzF: canonical amino acid controls; for reductions in FL/OD (GFP fluorescence divided by OD600): alkyne containing compound varied from 10 uM-10 mM, GRO culture
Source text: To meet the third criteria, NSAA expression using previously evolved amino acyl synthetase/tRNA pairs was used. Synthetases charge a cognate amino acid substrate onto the cognate tRNA pair. An amino acid, a synthetase, and a tRNA form a triad that is required to make that amino acid competent for translation and addition to the nascent polypeptide chain. Amino acid/synthetase/tRNA triads are generally specific thereby preserving the fidelity of the translation of genetic code into proteins. As such, new synthetase/tRNA pairs that function specifically with each other are generated and used to add new NSAAs to the genetic code (or to evaluate the bio-orthogonality of bond-forming NSAA candidates). Alternatively, known synthetase/tRNA pairs are used to evaluate the bio-orthgonality of bond-forming NSAA candidate pairs.
First, genomically recoded organisms (“GRO”) as described above were cultured in triplicate in LB-Lennox broth, across a dilution series from 1 uM to 10 mM (incl. 0 uM) NSAA in a 96-well plate. GRO growth (OD600) was kinetically monitored to quantify growth rates and reductions were measured as time to OD600=0.4 and Vmax (dODmax/dt). These experiments helped define the sub-toxic concentration range of an NSAA of interest. Second, the GRO strain was transformed with an L-arabinose-inducible plasmid bearing the synthetase/tRNA that are specific for the NSAA side chain reactivity being evaluated. See Lajoie, M. J. et al. Genomically recoded organisms expand biological functions. Science 342, 357-360, doi:10.1126/science.1241459 (2013) hereby incorporated by reference in its entirety. […] Only GROs will read these codons as sense codons, not terminate the GFP_UAG translation, and generate NSAA-containing GFP that fluoresces. Patent translation of GFP_UAG (e.g., fluorescence) requires culture in NSAA and transformation with a plasmid bearing the proper synthetase/tRNA pair to use that NSAA. In this way, GFP fluorescence can be a quantitative metric for NSAA-containing protein translation. […] Due to auto-fluorescence of LB-Lennox media, the cells were washed twice in phosphate-buffered saline (pH 7.2) by centrifugation at 4,000×g for 5 minutes. After the second wash, the cells were resuspended in 150 uL PBS for measurement of growth (OD600) and GFP fluorescence (excitation 388 nm, emission 510 nm) using a Biotek Synergy H1/H4 or a Molecular Devices M5 Spectrophotometer. GFP translation was normalized by OD600 as fluorescence divided by OD600 when measured (FL/OD), and optimal concentration of NSAA was FL/ODmax.
Once optimal NSAA concentration was determined, a candidate NSAA is tested to determine whether it impairs translation of the other cognate pair. […] After culture and washing as above, FL/OD was measured and plotted as a function of the NSAA being varied. […]

[2] = tested on: genomically recoded organism (GRO); test: titration of optimal NSAA concentration by GFP_UAG fluorescence assay (FL/ODmax); assay type: cell-based, E. coli; conditions: GRO bearing synthetase/tRNA and GFP_UAG reporter plasmids; NSAA range 10 uM to 10 mM
Protocol: First, genomically recoded organisms (“GRO”) as described above were cultured in triplicate in LB-Lennox broth, across a dilution series from 1 uM to 10 mM (incl. 0 uM) NSAA in a 96-well plate. GRO growth (OD600) was kinetically monitored to quantify growth rates and reductions were measured as time to OD600=0.4 and Vmax (dODmax/dt). These experiments helped define the sub-toxic concentration range of an NSAA of interest. Second, the GRO strain was transformed with an L-arabinose-inducible plasmid bearing the synthetase/tRNA that are specific for the NSAA side chain reactivity being evaluated. See Lajoie, M. J. et al. Genomically recoded organisms expand biological functions. […] Only GROs will read these codons as sense codons, not terminate the GFP_UAG translation, and generate NSAA-containing GFP that fluoresces. Patent translation of GFP_UAG (e.g., fluorescence) requires culture in NSAA and transformation with a plasmid bearing the proper synthetase/tRNA pair to use that NSAA. In this way, GFP fluorescence can be a quantitative metric for NSAA-containing protein translation. […] Due to auto-fluorescence of LB-Lennox media, the cells were washed twice in phosphate-buffered saline (pH 7.2) by centrifugation at 4,000×g for 5 minutes. […] GFP translation was normalized by OD600 as fluorescence divided by OD600 when measured (FL/OD), and optimal concentration of NSAA was FL/ODmax.

Row | Structure (SMILES) | reductions in OD consistent with reaction with pAzF [1] | reductions in FL/OD (GFP fluorescence divided by OD600) [1] | also measured
1 | N[C@@H](Cc1ccc(O)cc1)C(=O)O [tyrosine] | do not show any reductions in OD | – | –
2 | [N-]=[N+]=Nc1ccc(C[C@H](N)C(=O)O)cc1 [pAzF, para-azido-phenylalanine] | – | – | optimal concentration of NSAA (FL/ODmax) [2]: 1 mM
3 | C#CCONCC(=O)O [pPrG, propargyl-oxyglycine] | – | no reductions in FL/OD | –
4 | N[C@@H](CO)C(=O)O [serine] | do not show any reductions in OD | – | –
5 | C1#CCCCCCC1 [unsubstituted cyclo-octynes] | – | no reductions in FL/OD | –
